PubChem BioAssay (NCI)
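Tested at 5 concentrations; 48 h exposure; 96-well plates; endpoints linearly interpolated, else capped at highest concentration. TGI marks complete inhibition of growth.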

Experiments:
Assay in all cases: inhibition of tumour cell growth, NCI panel, 48 h
[1] = system: SNB-75 CNS
[2] = system: OVCAR-5 ovarian
[3] = system: HCT-15 colon
[4] = system: U251 CNS
[5] = system: MCF7 breast
[6] = system: OVCAR-8 ovarian
[7] = system: BT-549 breast
[8] = system: DU-145 prostate
[9] = system: SK-MEL-5 melanoma
[10] = system: OVCAR-4 ovarian
[11] = system: PC-3 prostate
[12] = system: M14 melanoma
[13] = system: ACHN renal
[14] = system: COLO 205 colon
[15] = system: KM12 colon
[16] = system: TK-10 renal
[17] = system: NCI/ADR-RES ovarian
[18] = system: LOX IMVI melanoma
[19] = system: IGROV1 ovarian
[20] = system: K-562 leukemia
[21] = system: SNB-19 CNS
[22] = system: NCI-H460 lung
[23] = system: MDA-MB-231 breast
[24] = system: SF-295 CNS
[25] = system: HS 578T breast
[26] = system: NCI-H522 lung
[27] = system: RPMI-8226 leukemia
[28] = system: HT29 colon
[29] = system: HCC-2998 colon
[30] = system: HOP-92 NSCLC
[31] = system: SK-MEL-2 melanoma
[32] = system: SW-620 colon
[33] = system: RXF 393 renal
[34] = system: UACC-62 melanoma
[35] = system: HOP-62 NSCLC
[36] = system: MDA-MB-435
[37] = system: 786-0 renal
[38] = system: CAKI-1 renal
[39] = system: UO-31 renal
[40] = system: A498 renal
[41] = system: SK-MEL-28 melanoma
[42] = system: SF-268 CNS
[43] = system: UACC-257 melanoma
[44] = system: EKVX NSCLC
[45] = system: OVCAR-3 ovarian
[46] = system: HCT-116 colon
[47] = system: MALME-3M melanoma
[48] = system: SK-OV-3 ovarian
[49] = system: MOLT-4 leukemia
[50] = system: A549 NSCLC
[51] = system: NCI-H23 lung
[52] = system: SR leukemia
[53] = system: T-47D breast
[54] = system: SN12C renal
[55] = system: CCRF-CEM leukemia
[56] = system: NCI-H226 lung
[57] = system: HL-60(TB) leukemia
[58] = system: SF-539 CNS

Structure (SMILES): CN(C)CCC=C1c2ccccc2C=Cc2ccccc21
- TGI [1]: 31.1 µM
- TGI [2]: 29.5 µM
- TGI [3]: 33.1 µM
- TGI [4]: 29.8 µM
- TGI [5]: 29.9 µM
- TGI [6]: 30.5 µM
- TGI [7]: 31.8 µM
- TGI [8]: 35.4 µM
- TGI [9]: 27.5 µM
- TGI [10]: 68.1 µM
- TGI [11]: 35 µM
- TGI [12]: 32.6 µM
- TGI [13]: 30.9 µM
- TGI [14]: 29.3 µM
- TGI [15]: 35.3 µM
- TGI [16]: 29.8 µM
- TGI [17]: 31.2 µM
- TGI [18]: 31.6 µM
- TGI [19]: 31.5 µM
- TGI [20]: 56 µM
- TGI [21]: 41.7 µM
- TGI [22]: 28.9 µM
- TGI [23]: 31.5 µM
- TGI [24]: 32.8 µM
- TGI [25]: 42.3 µM
- TGI [26]: 37 µM
- TGI [27]: 52.3 µM
- TGI [28]: 19.2 µM
- TGI [29]: 18.5 µM
- TGI [30]: 34.9 µM
- TGI [31]: 32.3 µM
- TGI [32]: 38.2 µM
- TGI [33]: 34.3 µM
- TGI [34]: 30.3 µM
- TGI [35]: 33 µM
- TGI [36]: 36.5 µM
- TGI [37]: 30.5 µM
- TGI [38]: 35.7 µM
- TGI [39]: 32 µM
- TGI [40]: 29.4 µM
- TGI [41]: 31.3 µM
- TGI [42]: 30.9 µM
- TGI [43]: 28.3 µM
- TGI [44]: 28.7 µM
- TGI [45]: 31.1 µM
- TGI [46]: 30.7 µM
- TGI [47]: 31.9 µM
- TGI [48]: 31.4 µM
- TGI [49]: 42.6 µM
- TGI [50]: 39.6 µM
- TGI [51]: 35.1 µM
- TGI [52]: 42.8 µM
- TGI [53]: 44.8 µM
- TGI [54]: 32.5 µM

Structure (SMILES): O=C(O)/C(=C/C(=O)c1ccc(Cl)cc1)NNc1ccc([N+](=O)[O-])cc1[N+](=O)[O-]
- TGI [55]: 70 µM
- TGI [2]: > 100 µM
- TGI [3]: > 100 µM
- TGI [4]: > 100 µM
- TGI [5]: > 100 µM
- TGI [6]: > 100 µM
- TGI [7]: 92.5 µM
- TGI [8]: > 100 µM
- TGI [9]: > 100 µM
- TGI [10]: 42 µM
- TGI [11]: > 100 µM
- TGI [12]: > 100 µM
- TGI [13]: > 100 µM
- TGI [14]: > 100 µM
- TGI [15]: > 100 µM
- TGI [16]: > 100 µM
- TGI [17]: > 100 µM
- TGI [18]: > 100 µM
- TGI [56]: 69.3 µM
- TGI [19]: > 100 µM
- TGI [20]: > 100 µM
- TGI [21]: > 100 µM
- TGI [22]: > 100 µM
- TGI [23]: > 100 µM
- TGI [24]: > 100 µM
- TGI [25]: 94.4 µM
- TGI [26]: 46 µM
- TGI [27]: 96.9 µM
- TGI [57]: > 100 µM
- TGI [28]: > 100 µM
- TGI [29]: > 100 µM
- TGI [30]: 57.1 µM
- TGI [31]: > 100 µM
- TGI [34]: > 100 µM
- TGI [35]: 70 µM
- TGI [36]: > 100 µM
- TGI [37]: 53.4 µM
- TGI [38]: 46 µM
- TGI [39]: 44.2 µM
- TGI [40]: > 100 µM
- TGI [41]: > 100 µM
- TGI [42]: > 100 µM
- TGI [43]: > 100 µM
- TGI [44]: > 100 µM
- TGI [45]: 94.8 µM
- TGI [46]: 36.3 µM
- TGI [47]: > 100 µM
- TGI [48]: > 100 µM
- TGI [49]: > 100 µM
- TGI [50]: > 100 µM
- TGI [51]: > 100 µM
- TGI [52]: > 100 µM
- TGI [53]: > 100 µM
- TGI [54]: > 100 µM
- TGI [58]: > 100 µM
